Conditions in all cases: tested as the 125I-labelled form
Test [1] has as its target T1, Alpha-1,6-mannosylglycoprotein 6-beta-N-acetylglucosaminyltransferase A (Rattus norvegicus) (UniProt Q08834).
T1 sequence (whole entry): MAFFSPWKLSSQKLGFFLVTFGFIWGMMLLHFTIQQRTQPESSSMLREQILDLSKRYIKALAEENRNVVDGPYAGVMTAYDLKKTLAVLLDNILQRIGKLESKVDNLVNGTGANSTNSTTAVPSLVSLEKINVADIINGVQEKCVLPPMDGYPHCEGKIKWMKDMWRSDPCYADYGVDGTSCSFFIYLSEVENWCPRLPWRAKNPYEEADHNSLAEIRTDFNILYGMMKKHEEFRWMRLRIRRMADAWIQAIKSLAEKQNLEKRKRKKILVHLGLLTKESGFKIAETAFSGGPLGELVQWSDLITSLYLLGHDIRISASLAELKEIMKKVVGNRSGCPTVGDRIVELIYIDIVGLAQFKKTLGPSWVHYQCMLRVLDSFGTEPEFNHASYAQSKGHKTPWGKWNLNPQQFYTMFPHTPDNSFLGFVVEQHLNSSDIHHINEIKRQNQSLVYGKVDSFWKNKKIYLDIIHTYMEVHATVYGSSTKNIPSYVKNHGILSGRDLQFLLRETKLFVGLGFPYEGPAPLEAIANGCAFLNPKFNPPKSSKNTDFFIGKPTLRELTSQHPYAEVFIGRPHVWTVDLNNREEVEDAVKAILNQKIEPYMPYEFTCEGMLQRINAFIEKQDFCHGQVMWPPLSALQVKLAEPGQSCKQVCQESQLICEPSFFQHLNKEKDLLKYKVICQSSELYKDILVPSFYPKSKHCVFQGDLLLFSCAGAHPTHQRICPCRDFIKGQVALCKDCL
Put plainly: Activity at Wistar rat brain GnT-V assessed per mg of protein after 4 hrs by radio HPLC analysis.

The target in test [2] is T1, Alpha-1,6-mannosylglycoprotein 6-beta-N-acetylglucosaminyltransferase A (Rattus norvegicus). Put plainly: Activity at Wistar rat intestine GnT-V assessed per mg of protein after 4 hrs by radio HPLC analysis.
The target is the same in test [3]. Put plainly: Activity at Wistar rat lung GnT-V assessed per mg of protein after 4 hrs by radio HPLC analysis.
For test [4] the target is unchanged. Description: Activity at Wistar rat kidney GnT-V assessed per mg of protein after 4 hrs by radio HPLC analysis.
For test [5] the target is unchanged. Description: Activity at Wistar rat heart GnT-V assessed per mg of protein after 4 hrs by radio HPLC analysis.
For test [6] the target is unchanged. Description: Activity at Wistar rat serum GnT-V assessed per mg of protein after 4 hrs by radio HPLC analysis.
Test [7] has the same target. Put plainly: Activity at Wistar rat stomach GnT-V assessed per mg of protein after 4 hrs by radio HPLC analysis.
The target is the same in test [8]. Description: Activity at Wistar rat liver GnT-V assessed per mg of protein after 4 hrs by radio HPLC analysis.
Test [9] shares this target. Description: Activity at Wistar rat spleen GnT-V assessed per mg of protein after 4 hrs by radio HPLC analysis.

Each structure is given as a SMILES string.

In the case of `CC(=O)N[C@H]1[C@H](O[C@@H]2[C@@H](OC[C@H]3O[C@@H](OCCc4ccc(I)cc4)[C@H](O)[C@@H](O)[C@@H]3O)O[C@H](CO)[C@@H](O)[C@@H]2O)O[C@H](CO)[C@@H](O)[C@@H]1O`, the Activity in test [1] was found to be 261 pmol/h; in test [2], 774 pmol/h; in [3], 179 pmol/h; in [4], 671 pmol/h; in test [5], 31 pmol/h; in test [6] it was 1280 pmol/h. The Activity in test [7] came to 116 pmol/h; in test [8], 48 pmol/h; in test [9], 244 pmol/h.
